Patent publication US20150289518A1, “COMPOSITION COMPRISING A BIOLOGICAL CONTROL AGENT AND AN INSECTICIDE” (BAYER CROPSCIENCE AG, priority 2012, published 2015)

What was measured:
Format in all cases: in vivo
[1] = system: mustard beetle larvae (Phaedon cochleariae); assay: Phaedon cochleariae spray test; settings: mortality, Chinese cabbage leaf disks sprayed
Description: (§1) Formula for the efficacy of the combination of two compounds • The expected efficacy of a given combination of two compounds is calculated as follows (see Colby, S. R., “Calculating Synergistic and antagonistic Responses of Herbicide Combinations”, Weeds 15, pp. 20-22, 1967):
(§2) • X is the efficacy expressed in % mortality of the untreated control for test compound A at a concentration of m ppm respectively m g/ha, • Y is the efficacy expressed in % mortality of the untreated control for test compound B at a concentration of n ppm respectively n g/ha, • E is the efficacy expressed in % mortality of the untreated control using the mixture of A and B at m and n ppm respectively m and n g/ha,
(§3) If the observed insecticidal efficacy of the combination is higher than the one calculated as “E”, then the combination of the two compounds is more than additive, i.e., there is a synergistic effect.
• Solvent: 78.0 parts by weight of acetone • 1.5 parts by weight of dimethylformamide • Emulsifier: alkylaryl polyglycol ether […]
(§4) After the specified period of time, mortality in % is determined. […] The mortality values determined thus are recalculated using the Colby-formula (see sheet 1).

[2] = system: southern root-knot nematode (Meloidogyne incognita); assay: Meloidogyne incognita test (MELGIN); settings: nematicidal activity by gall formation on salad roots, 0.08 ppm
Description: as §1, §2, §3
• Solvent: 125.0 parts by weight of acetone
To produce a suitable preparation of active compound, 1 part by weight of active compound is mixed with the stated amount of solvent, and the concentrate is diluted with water to the desired concentration. […]
After the specified period the nematicidal activity is determined on the basis of the percentage of gall formation. […] The values determined thus are recalculated using the Colby-formula (see sheet 1).

[3] = system: green peach aphid (Myzus persicae); assay: Myzus persicae spray test; settings: mortality
Description: as §1, §2, §3
• Solvent: 78.0 parts by weight acetone • 1.5 parts by weight dimethylformamide • Emulsifier: alkylaryl polyglycol ether […]
as §4

Compound | Efficacy in % after 6d ([1]; 0.2 g ai/ha) | Efficacy in % after 14d [2] | Efficacy in % after 6d ([1]; 0.8 g ai/ha) | Efficacy in % after 6d ([3]; 0.8 g ai/ha, test 2, 6 d) | Efficacy in % after 1d ([3]; 4 g ai/ha, test 1, 1 d)
Abamectin | 0% | 0% | – | – | –
N#Cc1nn(-c2c(Cl)cc(C(F)(F)F)cc2Cl)c(N)c1[S+]([O-])C(F)(F)F (centres unmarked) [Fipronil] | – | – | 0% | 0% | 0%
